In patent US20250034159A1, “INHIBITORS OF EPIDERMAL GROWTH FACTOR RECEPTOR” (ORIC Pharmaceuticals, Inc., priority 2021, published 2025):

Legend:
[1] = molecular target: recombinant human EGFR L858R/C797S double mutant protein (Homo sapiens (Human), UniProt P00533, C797S/L858R); test: Biological Activity Assay B: biochemical assay against EGFR L858R/C797S protein (EGFR LR/CS)
Method: In Row A of a 384-well polypropylene plate, was added 48 μL of DMSO. In wells A1 and A24, were added 12 μL of DMSO. […] To a well in Row A were added 12 μL of each 10 mM test compound stock (100% DMSO). […] The final intermediate dilution plate contained 4×16-point compound serial dilutions in assay buffer. The DMSO concentration was 10%. The intermediate compound dilution plate was transferred to the Bravo and the “5 uL dispense into ARP.pro” protocol was run. To the black low volume assay ready plates, were added 5 μL of 40 uM Phosphosens peptide sensor/4 mM ATP working solution to each well. […] To column 24, was added 10 μL of assay buffer. The final DMSO concentration was 2.5%. […] The plates were sealed with the TopSeal-A Plus plate seals. […] Set for 90 cycles with 120 second interval. […] The slope of each curve was constructed using Dotmatics in each well, and each IC50s was calculated using a 4-parameter fit model.

[2] = molecular target: recombinant human EGFR exon 19 deletion/C797S double mutant protein (Homo sapiens (Human), UniProt P00533, C797S/DEL746-750); test: Biological Activity Assay C: biochemical assay against EGFR exon 19 deletion/C797S protein (EGFR d19/CS)
recombinant human EGFR exon 19 deletion/C797S double mutant protein, sequence (P00533 other isoform, or with tags, fused parts or gaps C797S/del 1-668/del 746-750 limits assumed): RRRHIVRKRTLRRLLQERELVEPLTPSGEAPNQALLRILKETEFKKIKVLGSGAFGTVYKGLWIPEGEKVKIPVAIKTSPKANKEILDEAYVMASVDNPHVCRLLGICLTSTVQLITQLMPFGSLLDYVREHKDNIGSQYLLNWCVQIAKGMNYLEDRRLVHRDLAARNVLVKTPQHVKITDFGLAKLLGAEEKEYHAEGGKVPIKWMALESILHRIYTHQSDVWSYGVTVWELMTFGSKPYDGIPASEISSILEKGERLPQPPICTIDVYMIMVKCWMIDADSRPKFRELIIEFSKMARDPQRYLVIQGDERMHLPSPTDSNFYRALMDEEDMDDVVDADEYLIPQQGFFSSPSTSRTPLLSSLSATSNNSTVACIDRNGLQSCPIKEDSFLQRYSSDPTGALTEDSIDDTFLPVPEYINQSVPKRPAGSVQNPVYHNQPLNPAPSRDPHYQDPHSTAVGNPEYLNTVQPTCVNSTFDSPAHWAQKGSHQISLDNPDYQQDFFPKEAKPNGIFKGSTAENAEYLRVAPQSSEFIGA
Procedure, shortened: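 Compounds were tested as 16-point serial dilutions (final DMSO 2.5%) with a Phosphosens peptide sensor/ATP working solution (40 uM/4 mM). The signal was read kinetically over 90 cycles at 120 s intervals. IC50s came from 4-parameter fits of per-well slopes.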

Ba/F3_EGFR WT cells = test: Biological Activity Assay D: BaF3 cell proliferation assay, EGFR wild-type (BaF3 WT); assay type: cell-based; conditions: Ba/F3 EGFR; Ba/F3_EGFR WT cells, ~72 hours, CellTiter-Glo; read-out: BaF3 WT IC50
BaF3_EGFR LR/CS cells = test: Biological Activity Assay D: BaF3 cell proliferation assay, EGFR L858R/C797S mutant (BaF3 LR/CS); assay type: cell-based; conditions: Ba/F3 EGFR; BaF3_EGFR LR/CS cells, ~72 hours, CellTiter-Glo; read-out: BaF3 LR/CS IC50
BaF3_EGFR d19/CS cells = test: Biological Activity Assay D: BaF3 cell proliferation assay, EGFR exon 19 deletion/C797S (BaF3 d19/CS); assay type: cell-based; conditions: Ba/F3 EGFR; BaF3_EGFR d19/CS cells, ~72 hours, CellTiter-Glo; read-out: BaF3 d19/CS IC50

recombinant human EGFR L858R/C797S double mutant protein, sequence (P00533 25-1210 C797S/L858R): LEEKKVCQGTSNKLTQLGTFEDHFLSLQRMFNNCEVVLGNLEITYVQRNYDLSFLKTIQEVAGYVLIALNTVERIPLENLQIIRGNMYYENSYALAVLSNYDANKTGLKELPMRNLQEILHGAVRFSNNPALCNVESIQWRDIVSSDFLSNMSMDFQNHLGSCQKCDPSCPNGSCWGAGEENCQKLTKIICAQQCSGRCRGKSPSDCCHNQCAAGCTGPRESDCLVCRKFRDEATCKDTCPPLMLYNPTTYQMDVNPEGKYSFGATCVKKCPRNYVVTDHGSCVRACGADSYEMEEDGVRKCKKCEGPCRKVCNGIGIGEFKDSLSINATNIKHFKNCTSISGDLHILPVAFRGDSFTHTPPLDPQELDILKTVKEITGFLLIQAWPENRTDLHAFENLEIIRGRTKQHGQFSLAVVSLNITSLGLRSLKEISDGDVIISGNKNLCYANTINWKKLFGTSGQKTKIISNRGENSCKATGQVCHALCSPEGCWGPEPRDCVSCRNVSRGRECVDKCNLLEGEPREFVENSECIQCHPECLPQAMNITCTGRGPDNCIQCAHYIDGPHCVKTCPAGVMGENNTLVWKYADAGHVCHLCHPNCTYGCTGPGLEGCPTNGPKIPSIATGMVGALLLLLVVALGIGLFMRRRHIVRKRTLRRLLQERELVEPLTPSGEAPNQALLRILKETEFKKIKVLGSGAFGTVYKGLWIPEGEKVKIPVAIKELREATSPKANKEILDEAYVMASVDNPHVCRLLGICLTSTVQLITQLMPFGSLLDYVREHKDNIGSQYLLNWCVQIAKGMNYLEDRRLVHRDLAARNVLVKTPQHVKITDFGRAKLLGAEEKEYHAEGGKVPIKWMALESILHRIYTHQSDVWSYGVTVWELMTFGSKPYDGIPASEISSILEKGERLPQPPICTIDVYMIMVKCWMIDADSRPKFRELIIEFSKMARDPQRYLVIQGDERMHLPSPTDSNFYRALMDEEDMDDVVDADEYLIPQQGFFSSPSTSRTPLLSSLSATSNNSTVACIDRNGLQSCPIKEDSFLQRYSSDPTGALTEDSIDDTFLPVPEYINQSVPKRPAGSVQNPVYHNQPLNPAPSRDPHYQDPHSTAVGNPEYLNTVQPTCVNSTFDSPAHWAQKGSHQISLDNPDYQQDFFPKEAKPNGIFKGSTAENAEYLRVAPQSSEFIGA

## OCCCc1cc(-c2ccnc3[nH]c(-c4ccccc4)cc23)n(-c2ccc(F)cc2)n1 [Example 12, 3-[1-(4-fluorophenyl)-5-{2-phenyl-1H-pyrrolo[2,3-b]pyridin-4-yl}pyrazol-3-yl]propan-1-ol]
[1]
  IC50: 1.08 nM
[2]
  IC50: 0.732 nM
Ba/F3_EGFR WT cells
  IC50: 483 nM
BaF3_EGFR LR/CS cells
  IC50: 25.3 nM
BaF3_EGFR d19/CS cells
  IC50: 21.4 nM

## CN1CCN(c2ccc(-c3nc4c(-c5cn(CCCO)nc5-c5ccc(F)cc5)ccnc4[nH]3)cc2)CC1 [Example 13, 3-[3-(4-Fluorophenyl)-4-{2-[4-(4-methylpiperazin-1-yl)phenyl]-3H-imidazo[4,5-b]pyridin-7-yl}-1H-pyrazol-1-yl]propan-1-ol]
[1]
  IC50: 0.272 nM
[2]
  IC50: 0.173 nM
Ba/F3_EGFR WT cells
  IC50: 255 nM
BaF3_EGFR LR/CS cells
  IC50: 4.1 nM
BaF3_EGFR d19/CS cells
  IC50: 3.71 nM

## CN1CC=C(c2cc3c(-c4cn(CCCO)nc4-c4ccc(F)cc4)ccnc3[nH]2)CC1 [Example 14, 3-{3-(4-Fluorophenyl)-4-[2-(1-methyl-1,2,3,6-tetrahydropyridin-4-yl)-1H-pyrrolo[2,3-b]pyridin-4-yl]-1H-pyrazol-1-yl}propan-1-ol]
[1]
  IC50: 7.58 nM
[2]
  IC50: 3.3 nM
Ba/F3_EGFR WT cells
  IC50: 1350 nM
BaF3_EGFR LR/CS cells
  IC50: 120 nM
BaF3_EGFR d19/CS cells
  IC50: 113 nM

## CN1CCN(c2ccc(-c3nc4c(-c5cn(CCCO)nc5-c5ccc(F)cc5)ncnc4[nH]3)cc2)CC1 [Example 15, 3-[3-(4-Fluorophenyl)-4-{8-[4-(4-methylpiperazin-1-yl)phenyl]-9H-purin-6-yl}-1H-pyrazol-1-yl]propan-1-ol]
[1]
  IC50: 0.27 nM
[2]
  IC50: 0.207 nM
Ba/F3_EGFR WT cells
  IC50: 64.7 nM
BaF3_EGFR LR/CS cells
  IC50: 1.02 nM
BaF3_EGFR d19/CS cells
  IC50: 0.949 nM

## N#Cc1c(-c2ccc(F)cc2)c(-c2ccnc3[nH]c(-c4ccccc4)cc23)nn1CCCO [Example 16, 4-(4-Fluorophenyl)-1-(3-hydroxypropyl)-3-(2-phenyl-1H-pyrrolo[2,3-b]pyridin-4-yl)-1H-pyrazole-5-carbonitrile]
[1]
  IC50: 1.47 nM
[2]
  IC50: 1.57 nM
Ba/F3_EGFR WT cells
  IC50: 816 nM
BaF3_EGFR LR/CS cells
  IC50: 4.38 nM
BaF3_EGFR d19/CS cells
  IC50: 3.39 nM

## OCCCn1cc(-c2ccnc3[nH]c(-c4nnco4)cc23)c(-c2ccc(F)cc2)n1 [Example 17, 3-{3-(4-Fluorophenyl)-4-[2-(1,3,4-oxadiazol-2-yl)-1H-pyrrolo[2,3-b]pyridin-4-yl]-1H-pyrazol-1-yl}propan-1-ol]
[1]
  IC50: 8.44 nM
[2]
  IC50: 3.46 nM
Ba/F3_EGFR WT cells
  IC50: 1740 nM
BaF3_EGFR LR/CS cells
  IC50: 153 nM
BaF3_EGFR d19/CS cells
  IC50: 157 nM

## CN1CCN(c2ccc(-c3cc4c(-c5nn(CCCO)nc5-c5ccc(F)cc5)ccnc4[nH]3)cc2)CC1 [Example 18, 3-[4-(4-Fluorophenyl)-5-{2-[4-(4-methylpiperazin-1-yl)phenyl]-1H-pyrrolo[2,3-b]pyridin-4-yl}-2H-1,2,3-triazol-2-yl]propan-1-ol]
[1]
  IC50: 0.141 nM
[2]
  IC50: 0.0926 nM
Ba/F3_EGFR WT cells
  IC50: 71.4 nM
BaF3_EGFR LR/CS cells
  IC50: 2.06 nM
BaF3_EGFR d19/CS cells
  IC50: 1.83 nM

## CN1CCN(c2ccc(-c3cc4c(-c5cn(CCCO)nc5-c5ccc(F)cc5)ncnc4[nH]3)cc2)CC1 [Example 19, 3-[3-(4-Fluorophenyl)-4-{6-[4-(4-methylpiperazin-1-yl)phenyl]-7H-pyrrolo[2,3-d]pyrimidin-4-yl}-1H-pyrazol-1-yl]propan-1-ol]
[1]
  IC50: 0.242 nM
[2]
  IC50: 0.17 nM
Ba/F3_EGFR WT cells
  IC50: 8.67 nM
BaF3_EGFR LR/CS cells
  IC50: 0.402 nM
BaF3_EGFR d19/CS cells
  IC50: 0.244 nM

## CCC(=O)CCn1cc(-c2ncnc3oc(-c4ccccc4)nc23)c(-c2ccc(F)cc2)n1 [Example 20, 1-[3-(4-fluorophenyl)-4-(2-phenyl[1,3]oxazolo[5,4-d]pyrimidin-7-yl)-1H-pyrazol-1-yl]pentan-3-one]
[1]
  IC50: 4.92 nM
[2]
  IC50: 4.19 nM
Ba/F3_EGFR WT cells
  IC50: 5340 nM
BaF3_EGFR LR/CS cells
  IC50: 578 nM
BaF3_EGFR d19/CS cells
  IC50: 686 nM

## CC(C)(O)CCn1cc(-c2ncnc3oc(-c4ccccc4)nc23)c(-c2ccc(F)cc2)n1 [Example 21, 4-[3-(4-Fluorophenyl)-4-(2-phenyl[1,3]oxazolo[5,4-d]pyrimidin-7-yl)-1H-pyrazol-1-yl]-2-methylbutan-2-ol]
[1]
  IC50: 5.2 nM
[2]
  IC50: 5.47 nM
Ba/F3_EGFR WT cells
  IC50: 18500 nM
BaF3_EGFR LR/CS cells
  IC50: 375 nM
BaF3_EGFR d19/CS cells
  IC50: 539 nM

## CC(C)(O)CCn1ncc(-c2ncnc3oc(-c4ccccc4)nc23)c1-c1ccc(F)cc1 [Example 22, 4-[5-(4-fluorophenyl)-4-(2-phenyl[1,3]oxazolo[5,4-d]pyrimidin-7-yl)-1H-pyrazol-1-yl]-2-methylbutan-2-ol]
[1]
  IC50: 197 nM
[2]
  IC50: 90.9 nM
Ba/F3_EGFR WT cells
  IC50: 20000 nM
BaF3_EGFR LR/CS cells
  IC50: 3660 nM
BaF3_EGFR d19/CS cells
  IC50: 4100 nM

## OCCCCn1nc(-c2ccc(F)cc2)c(-c2ccnc3[nH]c(-c4ccccc4)cc23)n1 [Example 23, 4-[4-(4-Fluorophenyl)-5-(2-phenyl-1H-pyrrolo[2,3-b]pyridin-4-yl)-2H-1,2,3-triazol-2-yl]butan-1-ol]
[1]
  IC50: 1.1 nM
[2]
  IC50: 0.633 nM
Ba/F3_EGFR WT cells
  IC50: 2650 nM
BaF3_EGFR LR/CS cells
  IC50: 69.9 nM
BaF3_EGFR d19/CS cells
  IC50: 31.9 nM

## OC1(CCn2cc(-c3ncnc4oc(-c5ccccc5)cc34)c(-c3ccc(F)cc3)n2)CC1 [Example 24, 1-{2-[3-(4-fluorophenyl)-4-(6-phenylfuro[2,3-d]pyrimidin-4-yl)-1H-pyrazol-1-yl]ethyl}cyclopropan-1-ol]
[1]
  IC50: 1.13 nM
[2]
  IC50: 0.909 nM
Ba/F3_EGFR WT cells
  IC50: 2490 nM
BaF3_EGFR LR/CS cells
  IC50: 124 nM
BaF3_EGFR d19/CS cells
  IC50: 44.7 nM

## N#CCn1cc(-c2ncnc3oc(-c4ccccc4)nc23)c(-c2ccc(F)cc2)n1 [Example 25, [3-(4-fluorophenyl)-4-(2-phenyl[1,3]oxazolo[5,4-d]pyrimidin-7-yl)-1H-pyrazol-1-yl]acetonitrile]
[1]
  IC50: 13 nM
[2]
  IC50: 7.72 nM
Ba/F3_EGFR WT cells
  IC50: 3490 nM
BaF3_EGFR LR/CS cells
  IC50: 726 nM
BaF3_EGFR d19/CS cells
  IC50: 810 nM

## Fc1ccc(-c2nn(CCCC(F)F)cc2-c2ncnc3oc(-c4ccccc4)nc23)cc1 [Example 26, 7-[1-(4,4-difluorobutyl)-3-(4-fluorophenyl)-1H-pyrazol-4-yl]-2-phenyl[1,3]oxazolo[5,4-d]pyrimidine]
[1]
  IC50: 4.06 nM
[2]
  IC50: 4.22 nM
Ba/F3_EGFR WT cells
  IC50: 6410 nM
BaF3_EGFR LR/CS cells
  IC50: 562 nM
BaF3_EGFR d19/CS cells
  IC50: 486 nM

## OCCn1nc(-c2ccc(F)cc2)c(-c2ncnc3[nH]c(-c4ccccc4)nc23)n1 [Example 27, 2-[4-(4-Fluorophenyl)-5-(8-phenyl-9H-purin-6-yl)-2H-1,2,3-triazol-2-yl]ethan-1-ol]
[1]
  IC50: 8.65 nM
[2]
  IC50: 3.12 nM
Ba/F3_EGFR WT cells
  IC50: 11700 nM
BaF3_EGFR LR/CS cells
  IC50: 208 nM
BaF3_EGFR d19/CS cells
  IC50: 464 nM

## OCCCCn1nc(-c2ccc(F)cc2)c(-c2ncnc3[nH]c(-c4ccccc4)nc23)n1 [Example 28, 4-[4-(4-fluorophenyl)-5-(8-phenyl-9H-purin-6-yl)-2H-1,2,3-triazol-2-yl]butan-1-ol]
[1]
  IC50: 10.8 nM
[2]
  IC50: 4.16 nM
Ba/F3_EGFR WT cells
  IC50: 17800 nM
BaF3_EGFR LR/CS cells
  IC50: 493 nM
BaF3_EGFR d19/CS cells
  IC50: 885 nM

## CN1CCN(c2ccc(-c3cc4c(-c5oc(CCCO)nc5-c5ccc(F)cc5)ccnc4[nH]3)cc2)CC1 [Example 29, 3-[4-(4-Fluorophenyl)-5-{2-[4-(4-methylpiperazin-1-yl)phenyl]-1H-pyrrolo[2,3-b]pyridin-4-yl}-1,3-oxazol-2-yl]propan-1-ol]
[1]
  IC50: 0.111 nM
[2]
  IC50: 0.0769 nM
Ba/F3_EGFR WT cells
  IC50: 88.4 nM
BaF3_EGFR LR/CS cells
  IC50: 1.29 nM
BaF3_EGFR d19/CS cells
  IC50: 1.22 nM

## N#CCn1cc(-c2ncnc3oc(-c4ccccc4)cc23)c(-c2ccc(F)cc2)n1 [Example 30]
[1]
  IC50: 1.72 nM
[2]
  IC50: 1.88 nM
Ba/F3_EGFR WT cells
  IC50: 4440 nM
BaF3_EGFR LR/CS cells
  IC50: 260 nM
BaF3_EGFR d19/CS cells
  IC50: 319 nM

## Fc1ccc(-c2nn(C3COC3)cc2-c2ncnc3oc(-c4ccccc4)cc23)cc1 [Example 31, 4-[3-(4-Fluorophenyl)-1-(oxetan-3-yl)-1H-pyrazol-4-yl]-6-phenylfuro[2,3-d]pyrimidine]
[1]
  IC50: 0.521 nM
[2]
  IC50: 0.446 nM
Ba/F3_EGFR WT cells
  IC50: 3320 nM
BaF3_EGFR LR/CS cells
  IC50: 97.9 nM
BaF3_EGFR d19/CS cells
  IC50: 66.5 nM

## Fc1ccc(-c2nn(CC3(F)COC3)cc2-c2ncnc3oc(-c4ccccc4)cc23)cc1 [Example 32, 4-{1-[(3-fluorooxetan-3-yl)methyl]-3-(4-fluorophenyl)-1H-pyrazol-4-yl}-6-phenylfuro[2,3-d]pyrimidine]
[1]
  IC50: 1.36 nM
[2]
  IC50: 1.26 nM
Ba/F3_EGFR WT cells
  IC50: 4730 nM
BaF3_EGFR LR/CS cells
  IC50: 130 nM
BaF3_EGFR d19/CS cells
  IC50: 114 nM

## CN1CCN(c2ccc(-c3cc4c(-c5cn(CCCO)nc5-c5ccc(F)cc5)ncnc4o3)cc2)CC1 [Example 33, 3-[3-(4-Fluorophenyl)-4-{6-[4-(4-methylpiperazin-1-yl)phenyl]furo[2,3-d]pyrimidin-4-yl}-1H-pyrazol-1-yl]propan-1-ol]
[1]
  IC50: 0.212 nM
[2]
  IC50: 0.119 nM
Ba/F3_EGFR WT cells
  IC50: 38 nM
BaF3_EGFR LR/CS cells
  IC50: 1.16 nM
BaF3_EGFR d19/CS cells
  IC50: 1.08 nM
